For 17 substances, target mRNA knockdown results are on record in the OligoGym collection.

HELM strings list units from the 5' end as sugar, base in round brackets, then linkage (d deoxyribose, r ribose, m 2'-O-methyl, p phosphodiester). Strings are as the collection lists them, not checked against the first reports. ss, as = sense and antisense strand; [fl2r] = 2'-fluoro
Note: test system not given here.

The conditions of the series: siRNA.
“RNA1{[fl2r](A)p.r(G)p.[fl2r](U)p.r(U)p.[fl2r](U)p.r(C)p.[fl2r](U)p.r(A)p.[fl2r](G)p.r(G)p.[fl2r](G)p.[fl2r](C)p.r(C)p.[fl2r](G)p.r(U)p.r(G)p.[fl2r](G)p.r(C)p.r(C)p.r(T)p.r(T)}|RNA2{r(G)p.r(G)p.r(C)p.r(C)p.r(A)p.r(C)p.r(G)p.r(G)p.r(C)p.r(C)p.r(C)p.r(U)p.r(A)p.r(G)p.r(A)p.r(A)p.r(A)p.r(C)p.r(U)p.r(T)p.r(T)}$$$RNA1{StrandType:ss}|RNA2{StrandType:as}$” had a target mRNA knockdown of 75%.

Substance “RNA1{[fl2r](A)p.r(G)p.r(A)p.[fl2r](G)p.r(A)p.[fl2r](A)p.r(G)p.[fl2r](G)p.[fl2r](G)p.r(C)p.r(G)p.[fl2r](U)p.r(C)p.r(U)p.r(C)p.[fl2r](U)p.r(A)p.[fl2r](C)p.r(A)p.r(T)p.r(T)}|RNA2{r(U)p.r(G)p.r(U)p.r(A)p.r(G)p.r(A)p.r(G)p.r(A)p.r(C)p.r(G)p.r(C)p.r(C)p.r(C)p.r(U)p.r(U)p.r(C)p.r(U)p.r(C)p.r(U)p.r(T)p.r(T)}$$$RNA1{StrandType:ss}|RNA2{StrandType:as}$” registered a target mRNA knockdown of 75%.

In turn, “RNA1{[fl2r](A)p.r(U)p.[fl2r](C)p.r(G)p.[fl2r](C)p.r(U)p.[fl2r](G)p.r(C)p.[fl2r](U)p.r(C)p.[fl2r](C)p.r(U)p.[fl2r](C)p.r(C)p.[fl2r](U)p.r(C)p.[fl2r](C)p.r(U)p.[fl2r](C)p.r(T)p.r(T)}|RNA2{r(G)p.r(A)p.r(G)p.r(G)p.r(A)p.r(G)p.r(G)p.r(A)p.r(G)p.r(G)p.r(A)p.r(G)p.r(C)p.r(A)p.r(G)p.r(C)p.r(G)p.r(A)p.[fl2r](U)p.r(T)p.r(T)}$$$RNA1{StrandType:ss}|RNA2{StrandType:as}$” yielded a target mRNA knockdown of 39%.

For “RNA1{[fl2r](A)p.r(U)p.r(C)p.[fl2r](G)p.[fl2r](A)p.r(C)p.r(C)p.r(U)p.[fl2r](G)p.[fl2r](A)p.[fl2r](A)p.[fl2r](G)p.[fl2r](G)p.[fl2r](A)p.[fl2r](G)p.r(U)p.[fl2r](A)p.r(C)p.[fl2r](G)p.r(T)p.r(T)}|RNA2{r(C)p.[fl2r](G)p.r(U)p.[fl2r](A)p.r(C)p.r(U)p.r(C)p.r(C)p.r(U)p.r(U)p.r(C)p.[fl2r](A)p.[fl2r](G)p.[fl2r](G)p.r(U)p.r(C)p.[fl2r](G)p.[fl2r](A)p.r(U)p.r(T)p.r(T)}$$$RNA1{StrandType:ss}|RNA2{StrandType:as}$”, the target mRNA knockdown came to 21%.

“RNA1{[fl2r](C)p.[fl2r](U)p.r(A)p.[fl2r](G)p.r(A)p.r(G)p.[fl2r](G)p.r(A)p.[fl2r](U)p.[fl2r](C)p.[fl2r](U)p.[fl2r](U)p.r(G)p.r(A)p.[fl2r](A)p.r(G)p.r(A)p.[fl2r](C)p.[fl2r](C)p.r(T)p.r(T)}|RNA2{r(G)p.r(G)p.[fl2r](U)p.[fl2r](C)p.[fl2r](U)p.[fl2r](U)p.[fl2r](C)p.r(A)p.r(A)p.r(G)p.r(A)p.[fl2r](U)p.[fl2r](C)p.[fl2r](C)p.[fl2r](U)p.[fl2r](C)p.[fl2r](U)p.r(A)p.r(G)p.r(T)p.r(T)}$$$RNA1{StrandType:ss}|RNA2{StrandType:as}$” yielded a target mRNA knockdown of 12%.

Regarding “RNA1{[fl2r](C)p.r(A)p.r(G)p.[fl2r](C)p.r(A)p.r(A)p.r(A)p.[fl2r](C)p.[fl2r](C)p.r(A)p.[fl2r](C)p.r(G)p.r(A)p.[fl2r](U)p.[fl2r](C)p.r(A)p.r(A)p.[fl2r](U)p.r(A)p.r(T)p.r(T)}|RNA2{[fl2r](U)p.r(A)p.[fl2r](U)p.[fl2r](U)p.r(G)p.r(A)p.[fl2r](U)p.[fl2r](C)p.r(G)p.[fl2r](U)p.r(G)p.r(G)p.[fl2r](U)p.[fl2r](U)p.[fl2r](U)p.r(G)p.[fl2r](C)p.[fl2r](U)p.r(G)p.r(T)p.r(T)}$$$RNA1{StrandType:ss}|RNA2{StrandType:as}$”, the target mRNA knockdown stood at 71%.

For “RNA1{[fl2r](C)p.r(A)p.r(G)p.r(A)p.r(G)p.[fl2r](C)p.r(A)p.r(A)p.[fl2r](U)p.[fl2r](U)p.r(G)p.[fl2r](U)p.[fl2r](U)p.[fl2r](U)p.r(A)p.[fl2r](C)p.[fl2r](C)p.[fl2r](U)p.r(A)p.r(T)p.r(T)}|RNA2{[fl2r](U)p.r(A)p.r(G)p.r(G)p.[fl2r](U)p.r(A)p.r(A)p.r(A)p.[fl2r](C)p.r(A)p.r(A)p.[fl2r](U)p.[fl2r](U)p.r(G)p.[fl2r](C)p.[fl2r](U)p.[fl2r](C)p.r(U)p.r(G)p.r(T)p.r(T)}$$$RNA1{StrandType:ss}|RNA2{StrandType:as}$”, the target mRNA knockdown stood at 72%.

Substance “RNA1{[fl2r](C)p.r(C)p.[fl2r](C)p.r(U)p.[fl2r](C)p.r(C)p.[fl2r](C)p.r(C)p.[fl2r](U)p.r(G)p.[fl2r](U)p.r(C)p.[fl2r](C)p.r(C)p.[fl2r](C)p.r(G)p.[fl2r](C)p.r(U)p.[fl2r](U)p.r(T)p.r(T)}|RNA2{[fl2r](A)p.[fl2r](A)p.r(G)p.r(C)p.r(G)p.r(G)p.r(G)p.r(G)p.[fl2r](A)p.r(C)p.[fl2r](A)p.r(G)p.r(G)p.r(G)p.r(G)p.[fl2r](A)p.r(G)p.r(G)p.r(G)p.r(T)p.r(T)}$$$RNA1{StrandType:ss}|RNA2{StrandType:as}$” came in with a target mRNA knockdown of 41%.

Consider “RNA1{[fl2r](C)p.r(C)p.[fl2r](G)p.r(A)p.[fl2r](A)p.r(G)p.[fl2r](A)p.r(C)p.[fl2r](G)p.r(A)p.[fl2r](A)p.r(G)p.[fl2r](C)p.r(U)p.[fl2r](A)p.r(U)p.[fl2r](G)p.r(A)p.[fl2r](A)p.r(T)p.r(T)}|RNA2{r(U)p.r(U)p.r(C)p.r(A)p.r(U)p.r(A)p.[fl2r](G)p.r(C)p.r(U)p.r(U)p.r(C)p.[fl2r](G)p.r(U)p.r(C)p.r(U)p.r(U)p.r(C)p.[fl2r](G)p.[fl2r](G)p.r(T)p.r(T)}$$$RNA1{StrandType:ss}|RNA2{StrandType:as}$”, for which the target mRNA knockdown came to 23%.

“RNA1{[fl2r](C)p.r(G)p.[fl2r](A)p.r(A)p.[fl2r](A)p.r(G)p.[fl2r](U)p.r(G)p.[fl2r](U)p.r(A)p.[fl2r](U)p.r(C)p.[fl2r](C)p.r(G)p.[fl2r](A)p.r(A)p.[fl2r](G)p.r(A)p.[fl2r](C)p.r(T)p.r(T)}|RNA2{[fl2r](G)p.r(U)p.r(C)p.r(U)p.r(U)p.r(C)p.[fl2r](G)p.[fl2r](G)p.r(A)p.r(U)p.r(A)p.r(C)p.r(A)p.r(C)p.r(U)p.r(U)p.r(U)p.r(C)p.[fl2r](G)p.r(T)p.r(T)}$$$RNA1{StrandType:ss}|RNA2{StrandType:as}$” registered a target mRNA knockdown of 41%.

As for “RNA1{[fl2r](C)p.r(G)p.[fl2r](A)p.r(C)p.[fl2r](G)p.r(A)p.[fl2r](U)p.r(U)p.[fl2r](C)p.r(U)p.[fl2r](U)p.r(C)p.[fl2r](U)p.r(A)p.[fl2r](C)p.r(U)p.[fl2r](C)p.r(A)p.[fl2r](A)p.r(T)p.r(T)}|RNA2{r(U)p.r(U)p.r(G)p.r(A)p.r(G)p.r(U)p.r(A)p.r(G)p.r(A)p.r(A)p.r(G)p.r(A)p.r(A)p.r(U)p.r(C)p.r(G)p.r(U)p.r(C)p.r(G)p.r(T)p.r(T)}$$$RNA1{StrandType:ss}|RNA2{StrandType:as}$”, the target mRNA knockdown is 56%.

“RNA1{[fl2r](C)p.r(G)p.[fl2r](G)p.r(G)p.[fl2r](U)p.r(A)p.[fl2r](C)p.r(G)p.[fl2r](A)p.r(G)p.[fl2r](C)p.r(C)p.[fl2r](G)p.r(G)p.[fl2r](A)p.r(A)p.[fl2r](C)p.r(C)p.r(U)p.r(T)p.r(T)}|RNA2{r(A)p.r(G)p.r(G)p.r(U)p.r(U)p.r(C)p.r(C)p.r(G)p.r(G)p.r(C)p.r(U)p.r(C)p.r(G)p.r(U)p.r(A)p.r(C)p.r(C)p.r(C)p.r(G)p.r(T)p.r(T)}$$$RNA1{StrandType:ss}|RNA2{StrandType:as}$”: the target mRNA knockdown worked out at 61%.

Regarding “RNA1{[fl2r](C)p.r(U)p.[fl2r](A)p.r(G)p.[fl2r](A)p.r(G)p.[fl2r](G)p.r(A)p.[fl2r](U)p.r(C)p.[fl2r](U)p.r(U)p.[fl2r](G)p.r(A)p.[fl2r](A)p.r(G)p.[fl2r](A)p.r(C)p.[fl2r](C)p.r(T)p.r(T)}|RNA2{[fl2r](G)p.[fl2r](G)p.r(U)p.r(C)p.r(U)p.r(U)p.r(C)p.r(A)p.r(A)p.[fl2r](G)p.r(A)p.r(U)p.r(C)p.r(C)p.r(U)p.r(C)p.r(U)p.r(A)p.[fl2r](G)p.r(T)p.r(T)}$$$RNA1{StrandType:ss}|RNA2{StrandType:as}$”, the target mRNA knockdown was determined as 38%.

Regarding “RNA1{[fl2r](C)p.r(U)p.[fl2r](A)p.r(G)p.[fl2r](A)p.r(G)p.[fl2r](G)p.r(A)p.[fl2r](U)p.r(C)p.[fl2r](U)p.r(U)p.[fl2r](G)p.r(A)p.[fl2r](A)p.r(G)p.[fl2r](A)p.r(C)p.r(C)p.r(T)p.r(T)}|RNA2{r(G)p.r(G)p.r(U)p.r(C)p.r(U)p.r(U)p.r(C)p.r(A)p.r(A)p.r(G)p.r(A)p.r(U)p.r(C)p.r(C)p.r(U)p.r(C)p.r(U)p.r(A)p.r(G)p.r(T)p.r(T)}$$$RNA1{StrandType:ss}|RNA2{StrandType:as}$”, the target mRNA knockdown came to 61%.

“RNA1{[fl2r](C)p.r(U)p.[fl2r](C)p.r(U)p.[fl2r](C)p.r(C)p.[fl2r](U)p.r(A)p.[fl2r](C)p.r(C)p.[fl2r](U)p.r(U)p.[fl2r](C)p.r(U)p.[fl2r](C)p.r(C)p.[fl2r](U)p.r(C)p.[fl2r](U)p.r(T)p.r(T)}|RNA2{r(A)p.r(G)p.r(A)p.r(G)p.r(G)p.r(A)p.r(G)p.r(A)p.r(A)p.r(G)p.r(G)p.r(U)p.r(A)p.r(G)p.r(G)p.r(A)p.r(G)p.r(A)p.r(G)p.r(T)p.r(T)}$$$RNA1{StrandType:ss}|RNA2{StrandType:as}$”: the target mRNA knockdown is 69%.

As to “RNA1{[fl2r](C)p.r(U)p.[fl2r](G)p.r(A)p.[fl2r](C)p.r(C)p.[fl2r](G)p.r(G)p.[fl2r](A)p.r(A)p.[fl2r](G)p.r(C)p.[fl2r](G)p.r(C)p.[fl2r](U)p.r(U)p.[fl2r](A)p.r(A)p.[fl2r](A)p.r(T)p.r(T)}|RNA2{r(U)p.r(U)p.r(U)p.[fl2r](A)p.[fl2r](A)p.r(G)p.r(C)p.r(G)p.r(C)p.r(U)p.r(U)p.r(C)p.r(C)p.r(G)p.r(G)p.r(U)p.r(C)p.[fl2r](A)p.r(G)p.r(T)p.r(T)}$$$RNA1{StrandType:ss}|RNA2{StrandType:as}$”, the target mRNA knockdown is 59%.

In the case of “RNA1{[fl2r](G)p.m(A)p.[fl2r](C)p.m(G)p.[fl2r](U)p.m(A)p.[fl2r](A)p.m(A)p.[fl2r](C)p.m(G)p.[fl2r](G)p.m(C)p.[fl2r](C)p.m(A)p.[fl2r](C)p.m(A)p.[fl2r](A)p.m(G)p.[fl2r](U)p.m(U)p.[fl2r](C)}|RNA2{[fl2r](A)p.m(C)p.[fl2r](U)p.m(U)p.[fl2r](G)p.m(U)p.[fl2r](G)p.m(G)p.[fl2r](C)p.m(C)p.[fl2r](G)p.m(U)p.[fl2r](U)p.m(U)p.[fl2r](A)p.m(C)p.[fl2r](G)p.m(U)p.[fl2r](C)p.m(G)p.[fl2r](C)}$$$RNA1{StrandType:ss}|RNA2{StrandType:as}$”, the target mRNA knockdown was found to be 23.8%.
